The record followed here is patent publication US20110306606A1, “NOVEL 2,6-SUBSTITUTED-3-NITROPYRIDINE DERIVATIVE, METHOD FOR PREPARING SAME, AND PHARMACEUTICAL COMPOSITION INCLUDING SAME” (priority 2008, published 2011).

Structures are written as SMILES.

For this data set, the system named is Osteoblasts (Calvarial cells). In words: Cytotoxicity test (MTT). To be noted: 1 μM compound, 72 hours, in comparison with vehicle control.
Method: For the preparation of osteoblasts (Calvarial cells), the calvaria were aseptically dissected from 1 to 2-day-old neonatal ICR mice and subjected to continuous reaction with a 0.2% collagenase solution to separate osteoblasts. The cell-suspended supernatant was centrifuged to recover osteoblasts which were grown to full confluence in an α-MEM supplemented with 10% FBS and then diluted to a desired cell density for use in the experiment.
Cytotoxicity of the compounds of the present invention was evaluated by carrying out the experiment described below.
The vehicle control group was established to contain 0.2% DMSO. 100 μL/well of the diluted drugs were dispensed into 96-well plates to which osteoblasts (calvarial cells) prepared in Experimental Example 1 were then added at a density of 1.0×10^4 cells/100 μL/well. Here, the final compound concentration in the cell culture was 1 μM, and the vehicle control group contained 0.1% DMSO. The cells were cultured in a 5% CO2 inhibitor at 37° for 72 hours. 25 μL of 3-(4,5-dimethyl-2-thiazolyl)-2,5-diphenyl-2H-tetrazolium bromide (MTT) dissolved in PBS (2 mg/mL) was added to each cell culture 4 hours before the end of culture. After completion of the reaction, the plates were centrifuged, the media were discarded, and 100 μL of formazan was added and dissolved in dimethyl sulfoxide (DMSO). Finally, the absorbance of the developed plates was measured at 540 nm. The cell viability was expressed as % concentration in comparison with the vehicle control group.
On to `CN1CCN(c2ccc([N+](=O)[O-])c(Nc3ccc(N4CCCC(CO)C4)c(F)c3)n2)CC1` (stereo not shown) [Compound 282, 2-{[3-fluoro-4-(3-hydroxymethylpiperidino)]phenylamino}-6-(4-methylpiperazin-1-yl)-3-nitropyridine], for which the “Cell viability (%) Calvarial cell” value stood at 107%.
For the compound `O=[N+]([O-])c1ccc(N2CCOCC2)nc1Nc1ccc(N2CCCC(CO)C2)c(F)c1` (stereo not shown) [Compound 283, 2-{[3-fluoro-4-(3-hydroxymethylpiperidino)]phenylamino}-6-morpholino-3-nitropyridine], the “Cell viability (%) Calvarial cell” value is 103%.
Next, `NC1CCN(c2ccc([N+](=O)[O-])c(Nc3ccc(N4CCCC(CO)C4)c(F)c3)n2)CC1` (stereo not shown) [Compound 284, 2-{[3-fluoro-4-(3-hydroxymethylpiperidino)]phenylamino}-6-(4-aminopiperidino)-3-nitropyridine]: 100%.
The value for `O=[N+]([O-])c1ccc(NCc2cccnc2)nc1Nc1ccc(N2CCCC(CO)C2)c(F)c1` (stereo not shown) [Compound 285, 2-{[3-fluoro-4-(3-hydroxymethylpiperidino)]phenylamino}-6-[(3-pyridyl)methylamino]-3-nitropyridine] was 106%; that for `O=[N+]([O-])c1ccc(NCc2ccncc2)nc1Nc1ccc(N2CCCC(CO)C2)c(F)c1` (stereo not shown) [Compound 286, 2-{[3-fluoro-4-(3-hydroxymethylpiperidino)]phenylamino}-6-[(4-pyridyl)methylamino]-3-nitropyridine] was 123%.
Next, `O=[N+]([O-])c1ccc(NCCc2ccccn2)nc1Nc1ccc(N2CCCC(CO)C2)c(F)c1` (stereo not shown) [Compound 287, 2-{[3-fluoro-4-(3-hydroxymethylpiperidino)]phenylamino}-6-[2-(2-pyridyl)ethylamino]-3-nitropyridine]: 103%.
As for `O=[N+]([O-])c1ccc(NC2CC2)nc1Nc1ccc(N2CCCC(CO)C2)c(F)c1` (stereo not shown) [Compound 288, 2-{[3-fluoro-4-(3-hydroxymethylpiperidino)]phenylamino}-6-(cyclopropylamino)-3-nitropyridine], the “Cell viability (%) Calvarial cell” value is recorded as 103%.
The value for `CNc1ccc([N+](=O)[O-])c(Nc2ccc(N3CCC(C(N)=O)CC3)c(F)c2)n1` [Compound 289, 2-{[3-fluoro-4-(4-carbamoylpiperidino)]phenylamino}-6-(methylamino)-3-nitropyridine] was 115%.
The value for `CC(C)Nc1ccc([N+](=O)[O-])c(Nc2ccc(N3CCC(C(N)=O)CC3)c(F)c2)n1` [Compound 290, 2-{[3-fluoro-4-(4-carbamoylpiperidino)]phenylamino}-6-(isopropylamino)-3-nitropyridine] was 119%; that for `CC(C)CNc1ccc([N+](=O)[O-])c(Nc2ccc(N3CCC(C(N)=O)CC3)c(F)c2)n1` [Compound 291, 2-{[3-fluoro-4-(4-carbamoylpiperidino)]phenylamino}-6-(isobutylamino)-3-nitropyridine] was 87%; that for `CC(C)(C)Nc1ccc([N+](=O)[O-])c(Nc2ccc(N3CCC(C(N)=O)CC3)c(F)c2)n1` [Compound 292, 2-{[3-fluoro-4-(4-carbamoylpiperidino)]phenylamino}-6-(t-butylamino)-3-nitropyridine] was 102%.
`NC(=O)C1CCN(c2ccc(Nc3nc(N4CCC(O)CC4)ccc3[N+](=O)[O-])cc2F)CC1` [Compound 293, 2-{[3-fluoro-4-(4-carbamoylpiperidino)]phenylamino}-6-(4-hydroxypiperidino)-3-nitropyridine]: the “Cell viability (%) Calvarial cell” value stood at 104%.
The value for `NC(=O)C1CCN(c2ccc(Nc3nc(N4CCNCC4)ccc3[N+](=O)[O-])cc2F)CC1` [Compound 294, 2-{[3-fluoro-4-(4-carbamoylpiperidino)]phenylamino}-6-(piperazin-1-yl)-3-nitropyridine] was 95%.
The value for `CN1CCN(c2ccc([N+](=O)[O-])c(Nc3ccc(N4CCC(C(N)=O)CC4)c(F)c3)n2)CC1` [Compound 295, 2-{[3-fluoro-4-(4-carbamoylpiperidino)]phenylamino}-6-(4-methylpiperazin-1-yl)-3-nitropyridine] was 106%; that for `NC(=O)C1CCN(c2ccc(Nc3nc(N4CCOCC4)ccc3[N+](=O)[O-])cc2F)CC1` [Compound 296, 2-{[3-fluoro-4-(4-carbamoylpiperidino)]phenylamino}-6-morpholino-3-nitropyridine] was 97%; that for `NC(=O)C1CCN(c2ccc(Nc3nc(N4CCC(N)CC4)ccc3[N+](=O)[O-])cc2F)CC1` [Compound 297, 2-{[3-fluoro-4-(4-carbamoylpiperidino)]phenylamino}-6-(4-aminopiperidino)-3-nitropyridine] was 107%.
Next, `NC(=O)C1CCN(c2ccc(Nc3nc(NCc4ccncc4)ccc3[N+](=O)[O-])cc2F)CC1` [Compound 298, 2-{[3-fluoro-4-(4-carbamoylpiperidino)]phenylamino}-6-[(4-pyridyl)methylamino]-3-nitropyridine]: 108%; `NC(=O)C1CCN(c2ccc(Nc3nc(NCCN4CCOCC4)ccc3[N+](=O)[O-])cc2F)CC1` [Compound 300, 2-{[3-fluoro-4-(4-carbamoylpiperidino)]phenylamino}-6-[2-(morpholin-1-yl)ethylamino]-3-nitropyridine]: 118%.
Turning to `CNc1ccc([N+](=O)[O-])c(Nc2ccc(N3CCCC(C(N)=O)C3)c(F)c2)n1` (stereo not shown) [Compound 301, 2-{[3-fluoro-4-(3-carbamoylpiperidino)]phenylamino}-6-(methylamino)-3-nitropyridine], the “Cell viability (%) Calvarial cell” value was found to be 95%.
Next, `CC(C)Nc1ccc([N+](=O)[O-])c(Nc2ccc(N3CCCC(C(N)=O)C3)c(F)c2)n1` (stereo not shown) [Compound 302, 2-{[3-fluoro-4-(3-carbamoylpiperidino)]phenylamino}-6-(isopropylamino)-3-nitropyridine]: 103%; `CC(C)CNc1ccc([N+](=O)[O-])c(Nc2ccc(N3CCCC(C(N)=O)C3)c(F)c2)n1` (stereo not shown) [Compound 303, 2-{[3-fluoro-4-(3-carbamoylpiperidino)]phenylamino}-6-(isobutylamino)-3-nitropyridine]: 102%.
The value for `CC(C)(C)Nc1ccc([N+](=O)[O-])c(Nc2ccc(N3CCCC(C(N)=O)C3)c(F)c2)n1` (stereo not shown) [Compound 304, 2-{[3-fluoro-4-(3-carbamoylpiperidino)]phenylamino}-6-(t-butylamino)-3-nitropyridine] was 103%; that for `NC(=O)C1CCCN(c2ccc(Nc3nc(N4CCC(O)CC4)ccc3[N+](=O)[O-])cc2F)C1` (stereo not shown) [Compound 305] was 107%.
`NC(=O)C1CCCN(c2ccc(Nc3nc(N4CCNCC4)ccc3[N+](=O)[O-])cc2F)C1` (stereo not shown) [Compound 306, 2-{[3-fluoro-4-(3-carbamoylpiperidino)]phenylamino}-6-(piperazin-1-yl)-3-nitropyridine]: the “Cell viability (%) Calvarial cell” value is 122%.
Next, `CN1CCN(c2ccc([N+](=O)[O-])c(Nc3ccc(N4CCCC(C(N)=O)C4)c(F)c3)n2)CC1` (stereo not shown) [Compound 307, 2-{[3-fluoro-4-(3-carbamoylpiperidino)]phenylamino}-6-(4-methylpiperazin-1-yl)-3-nitropyridine]: 131%; `NC(=O)C1CCCN(c2ccc(Nc3nc(N4CCOCC4)ccc3[N+](=O)[O-])cc2F)C1` (stereo not shown) [Compound 308, 2-{[3-fluoro-4-(3-carbamoylpiperidino)]phenylamino}-6-morpholino-3-nitropyridine]: 109%; `NC(=O)C1CCCN(c2ccc(Nc3nc(N4CCC(N)CC4)ccc3[N+](=O)[O-])cc2F)C1` (stereo not shown) [Compound 309, 2-{[3-fluoro-4-(3-carbamoylpiperidino)]phenylamino}-6-(4-aminopiperidino)-3-nitropyridine]: 110%.
Next, `NC(=O)C1CCCN(c2ccc(Nc3nc(NCc4cccnc4)ccc3[N+](=O)[O-])cc2F)C1` (stereo not shown) [Compound 310, 2-{[3-fluoro-4-(3-carbamoylpiperidino)]phenylamino}-6-[(3-pyridyl)methylamino]-3-nitropyridine]: 97%; `NC(=O)C1CCCN(c2ccc(Nc3nc(NCc4ccncc4)ccc3[N+](=O)[O-])cc2F)C1` (stereo not shown) [Compound 311, 2-{[3-fluoro-4-(3-carbamoylpiperidino)]phenylamino}-6-[(4-pyridyl)methylamino]-3-nitropyridine]: 98%; `NC(=O)C1CCCN(c2ccc(Nc3nc(NCCCn4ccnc4)ccc3[N+](=O)[O-])cc2F)C1` (stereo not shown) [Compound 312, 2-{[3-fluoro-4-(3-carbamoylpiperidino)]phenylamino}-6-[(3-imidazol-1-yl)propylamino]-3-nitropyridine]: 98%.
Next, `NC(=O)C1CCCN(c2ccc(Nc3nc(NCCN4CCOCC4)ccc3[N+](=O)[O-])cc2F)C1` (stereo not shown) [Compound 313, 2-{[3-fluoro-4-(3-carbamoylpiperidino)]phenylamino}-6-[2-(morpholin-1-yl)ethylamino]-3-nitropyridine]: 106%; `NC(=O)C1CCCN(c2ccc(Nc3nc(NCCCN4CCOCC4)ccc3[N+](=O)[O-])cc2F)C1` (stereo not shown) [Compound 314, 2-{[3-fluoro-4-(3-carbamoylpiperidino)]phenylamino}-6-[(3-morpholin-1-yl)propylamino]-3-nitropyridine]: 103%.
For the compound `CCN(CC)c1ccc([N+](=O)[O-])c(Nc2ccc(N3CCCC(C(N)=O)C3)c(F)c2)n1` (stereo not shown) [Compound 315, 2-{[3-fluoro-4-(3-carbamoylpiperidino)]phenylamino}-6-(diethylamino)-3-nitropyridine], the “Cell viability (%) Calvarial cell” value is reported as 104%.
For `CNc1ccc([N+](=O)[O-])c(Nc2ccc(N3CCC(C(=O)O)CC3)c(F)c2)n1` [Compound 316, 2-{[3-fluoro-4-(4-carboxylicpiperidino)]phenylamino}-6-(methylamino)-3-nitropyridine], the “Cell viability (%) Calvarial cell” value is on record as 95%.
